Earlier results on one compound are cited in US6511683B1, “Enchinacea supplement and method of manufacture” (Factors R & D Technologies Ltd., priority 1999, dated 2003).

One data set relates to immune system. To be noted: Awang et al.
In another data set the test system is granulocytes. As to conditions: Awang et al.

SMILES strings stand for the structures.

With `O=C(/C=C/c1ccc(O)c(O)c1)O[C@@H](C(=O)O)[C@@H](OC(=O)/C=C/c1ccc(O)c(O)c1)C(=O)O` [cichoric acid, 2,3-o-di-caffeoyl-tartaric acid], the “concentration that may stimulate the immune system” value in the data set with immune system is listed as at least 0.01 ppm. For the same compound, the phagocytosis in granulocytes entry with granulocytes is “increase”.
